# Active and inactive are the calls of the source.
# Key:
# [1] = viability of HCT116 lacking mutant beta-catenin – cell-based, human colon tumor, dose response (AID 1045); type: functional;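 also: HCT116 colon tumor cells with beta catenin knocked out; cells exposed to compound for 60 hours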
# [2] = target: 72 kDa type IV collagenase (Homo sapiens, UniProt P08253); assay: Dose Response validation of uHTS RPN11 inhibitor hits using a MMP-2 Fluorescence assay.; type: functional
# [3] = viability of PTEN-deleted HCT116 cells – cell-based, HCT116 PTEN knockout, dose response (AID 1047); type: functional;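 also: HCT116 colon tumor cells with PTEN knocked out; cells exposed to compound for 60 hours before readout; potency for loss of cell viability measured by luminescence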
# [4] = target: Induced myeloid leukemia cell differentiation protein Mcl-1 (Homo sapiens, UniProt Q07820); assay: Mcl-1 Noxa peptide disruption concentration-response – biochemical, TR-FRET, dose response (AID 1417); type: functional
# [5] = target: 26S proteasome non-ATPase regulatory subunit 14 (Homo sapiens, UniProt O00487); assay: inhibition of proteasome subunit RPN11 – biochemical, fluorescence polarization, uHTS hits, confirmation (AID 602368); type: functional
# [6] = target: Prothrombin (Bos taurus, UniProt P00735); assay: thrombin protease inhibitors – biochemical, fluorescence polarization, uHTS hits, dose response (AID 602369); type: functional
# [7] = target: T1, Leucine aminopeptidase (Plasmodium falciparum 3D7, UniProt Q8IL11); assay: P. falciparum M17LAP inhibitors, primary screen, biochemical, fluorogenic H-Leu-NHMec substrate, 1536-well (AID 1619); type: functional
# T1 sequence (Q8IL11 whole entry): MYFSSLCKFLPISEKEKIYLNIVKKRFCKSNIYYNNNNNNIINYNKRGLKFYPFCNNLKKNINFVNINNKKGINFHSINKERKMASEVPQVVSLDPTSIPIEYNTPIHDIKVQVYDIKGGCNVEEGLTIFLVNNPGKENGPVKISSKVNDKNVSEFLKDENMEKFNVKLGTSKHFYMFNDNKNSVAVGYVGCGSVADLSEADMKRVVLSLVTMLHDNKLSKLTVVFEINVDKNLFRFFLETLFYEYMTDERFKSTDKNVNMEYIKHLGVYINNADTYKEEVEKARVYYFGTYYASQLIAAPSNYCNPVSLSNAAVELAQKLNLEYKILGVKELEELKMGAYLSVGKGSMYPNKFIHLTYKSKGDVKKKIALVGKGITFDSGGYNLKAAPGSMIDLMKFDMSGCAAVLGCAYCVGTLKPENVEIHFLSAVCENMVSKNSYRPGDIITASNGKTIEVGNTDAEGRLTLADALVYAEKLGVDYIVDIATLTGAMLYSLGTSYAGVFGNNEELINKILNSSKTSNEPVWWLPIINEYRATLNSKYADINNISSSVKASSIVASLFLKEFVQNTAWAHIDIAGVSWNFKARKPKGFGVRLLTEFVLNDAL
# [8] = target: FAD-linked sulfhydryl oxidase ALR (Homo sapiens, UniProt P55789); assay: ALR-catalysed DTT oxidation blockers – biochemical, H2O2 detection, luminescence, cherry-pick, dose response (AID 493248)
# [9] = target: T2, Rac GTPase-activating protein 1 (Homo sapiens, UniProt Q9H0H5); assay: blockers of MgcRacGAP-driven Rac1 GTP hydrolysis – biochemical, ADP Hunter fluorescence, primary and confirmatory, confirmation (AID 624330); type: functional
# T2 sequence (Q9H0H5 whole entry): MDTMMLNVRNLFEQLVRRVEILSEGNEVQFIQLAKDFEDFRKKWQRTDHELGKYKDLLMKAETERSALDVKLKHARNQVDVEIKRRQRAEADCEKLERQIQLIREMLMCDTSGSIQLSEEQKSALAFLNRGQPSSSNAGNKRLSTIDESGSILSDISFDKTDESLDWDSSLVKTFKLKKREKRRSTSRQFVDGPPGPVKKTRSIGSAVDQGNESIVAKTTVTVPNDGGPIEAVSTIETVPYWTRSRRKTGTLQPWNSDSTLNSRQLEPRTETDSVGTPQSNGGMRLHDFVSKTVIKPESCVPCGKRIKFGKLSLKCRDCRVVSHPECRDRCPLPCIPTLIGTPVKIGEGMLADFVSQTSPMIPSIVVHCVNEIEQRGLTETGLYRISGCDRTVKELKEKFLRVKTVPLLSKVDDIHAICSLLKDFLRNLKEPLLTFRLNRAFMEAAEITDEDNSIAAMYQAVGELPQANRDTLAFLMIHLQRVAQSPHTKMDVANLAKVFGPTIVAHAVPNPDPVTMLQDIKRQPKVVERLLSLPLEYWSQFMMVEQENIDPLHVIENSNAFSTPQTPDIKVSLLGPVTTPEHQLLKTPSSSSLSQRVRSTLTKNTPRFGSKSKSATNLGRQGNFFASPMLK
# [10] = target: T3, Aminopeptidase N (Plasmodium falciparum FcB1/Columbia, UniProt O96935); assay: malaria alanyl aminopeptidase activity blockers – biochemical, fluorogenic H-Leu-NHMec substrate, 1536-well (AID 1445); set-up: species or system Plasmodium falciparum 3D7, 3D7
# T3 sequence (O96935 whole entry): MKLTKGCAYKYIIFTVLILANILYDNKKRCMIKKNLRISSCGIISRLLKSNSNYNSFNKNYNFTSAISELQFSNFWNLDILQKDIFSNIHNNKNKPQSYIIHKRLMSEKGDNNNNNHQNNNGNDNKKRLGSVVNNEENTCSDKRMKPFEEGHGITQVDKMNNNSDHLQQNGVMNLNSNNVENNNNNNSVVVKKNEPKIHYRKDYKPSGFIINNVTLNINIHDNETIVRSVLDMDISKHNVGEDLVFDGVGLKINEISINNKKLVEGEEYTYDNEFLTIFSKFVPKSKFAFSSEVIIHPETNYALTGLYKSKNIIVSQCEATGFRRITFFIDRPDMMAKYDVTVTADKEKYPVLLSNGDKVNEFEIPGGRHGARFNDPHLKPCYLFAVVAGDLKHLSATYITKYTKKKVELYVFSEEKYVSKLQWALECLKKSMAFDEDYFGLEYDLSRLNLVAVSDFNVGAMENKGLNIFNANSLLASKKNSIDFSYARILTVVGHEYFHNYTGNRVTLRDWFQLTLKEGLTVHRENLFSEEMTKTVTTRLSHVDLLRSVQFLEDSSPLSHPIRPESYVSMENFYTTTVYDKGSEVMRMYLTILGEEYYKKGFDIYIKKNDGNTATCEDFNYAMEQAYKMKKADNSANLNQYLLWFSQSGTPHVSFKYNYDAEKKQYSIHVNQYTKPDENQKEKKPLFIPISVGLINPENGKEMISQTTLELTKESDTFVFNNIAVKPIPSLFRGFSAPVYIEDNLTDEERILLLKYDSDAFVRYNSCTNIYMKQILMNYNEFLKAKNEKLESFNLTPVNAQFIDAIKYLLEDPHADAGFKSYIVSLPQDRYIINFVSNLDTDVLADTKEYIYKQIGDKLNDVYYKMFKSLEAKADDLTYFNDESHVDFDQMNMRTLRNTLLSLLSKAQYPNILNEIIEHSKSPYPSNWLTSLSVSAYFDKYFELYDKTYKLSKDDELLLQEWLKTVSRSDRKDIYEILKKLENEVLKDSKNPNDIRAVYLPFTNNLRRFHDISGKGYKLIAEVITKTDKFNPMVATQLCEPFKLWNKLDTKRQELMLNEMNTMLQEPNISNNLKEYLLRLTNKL
# [11] = target: T4, CAAX prenyl protease 2 (Saccharomyces cerevisiae S288c, UniProt Q03530); type: biochemical
# T4 sequence (Q03530 whole entry): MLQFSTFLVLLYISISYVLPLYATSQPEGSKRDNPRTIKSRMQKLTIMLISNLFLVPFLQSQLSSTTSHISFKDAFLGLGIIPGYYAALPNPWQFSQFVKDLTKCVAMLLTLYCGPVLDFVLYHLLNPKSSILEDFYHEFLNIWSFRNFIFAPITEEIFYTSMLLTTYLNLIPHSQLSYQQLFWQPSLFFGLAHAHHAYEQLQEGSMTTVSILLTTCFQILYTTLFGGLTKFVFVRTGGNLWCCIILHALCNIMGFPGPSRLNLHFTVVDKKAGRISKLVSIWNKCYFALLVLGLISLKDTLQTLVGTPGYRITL
# [12] = target: T5, Replicative DNA helicase DnaB (Mycobacterium tuberculosis, UniProt P9WMR3); assay: DnaB intein splicing inhibitors, dose response, biochemical, cell-free fluorescence (AID 449749); type: functional
# T5 sequence (P9WMR3 whole entry): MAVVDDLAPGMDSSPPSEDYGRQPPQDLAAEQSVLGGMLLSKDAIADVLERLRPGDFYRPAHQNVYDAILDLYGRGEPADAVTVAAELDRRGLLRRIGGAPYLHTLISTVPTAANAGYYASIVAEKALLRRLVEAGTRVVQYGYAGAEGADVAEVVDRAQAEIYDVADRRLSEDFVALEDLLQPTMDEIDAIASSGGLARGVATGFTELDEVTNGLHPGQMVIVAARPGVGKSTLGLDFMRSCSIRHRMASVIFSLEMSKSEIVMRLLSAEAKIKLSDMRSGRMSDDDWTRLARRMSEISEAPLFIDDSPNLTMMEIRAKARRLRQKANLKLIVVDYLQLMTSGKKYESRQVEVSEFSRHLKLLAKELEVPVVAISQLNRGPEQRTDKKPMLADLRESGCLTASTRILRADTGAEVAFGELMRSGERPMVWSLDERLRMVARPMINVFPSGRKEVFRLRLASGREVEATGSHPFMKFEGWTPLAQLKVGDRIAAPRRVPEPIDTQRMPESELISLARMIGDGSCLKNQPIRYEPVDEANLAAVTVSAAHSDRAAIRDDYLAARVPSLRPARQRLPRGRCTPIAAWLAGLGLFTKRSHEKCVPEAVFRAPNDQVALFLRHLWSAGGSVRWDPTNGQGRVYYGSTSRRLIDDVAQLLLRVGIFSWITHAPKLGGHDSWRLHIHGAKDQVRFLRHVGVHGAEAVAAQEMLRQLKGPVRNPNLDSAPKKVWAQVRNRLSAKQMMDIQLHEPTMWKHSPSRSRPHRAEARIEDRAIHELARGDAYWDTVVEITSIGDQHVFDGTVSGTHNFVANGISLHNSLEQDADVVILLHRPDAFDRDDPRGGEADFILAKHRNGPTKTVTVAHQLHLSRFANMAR
# [13] = system: BJ; assay: BJ-TERT-LT-ST fibroblast viability loss – cell-based, RAS-independent, luminescence, dose response (AID 1935); type: functional; settings: Homo sapiens;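 also: BJ fibroblasts immortalized with TERT plus LT and ST oncogenes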
# [14] = DRD fibroblast viability loss – cell-based, non-viral oncogenic, luminescence, dose response (AID 1934); type: functional; settings: Homo sapiens
# [15] = system: BJ; assay: BJ-TERT fibroblast viability loss – cell-based, RAS-independent, luminescence, dose response (AID 1933); type: functional; settings: Homo sapiens
# [16] = system: BJ; assay: cells; type: functional, cell-based; settings: Homo sapiens
# [17] = target: T6, Protein RecA (Mycobacterium tuberculosis, UniProt P9WHJ3); assay: Fluorescence Cell-Free Homogeneous Dose Retest to Identify Inhibitors of RecA-Intein Splicing Activity. [Related pubchem assays (depositor defined):AID2097, AID2223, AID489010, AID492950]; type: functional
# T6 sequence (P9WHJ3 whole entry): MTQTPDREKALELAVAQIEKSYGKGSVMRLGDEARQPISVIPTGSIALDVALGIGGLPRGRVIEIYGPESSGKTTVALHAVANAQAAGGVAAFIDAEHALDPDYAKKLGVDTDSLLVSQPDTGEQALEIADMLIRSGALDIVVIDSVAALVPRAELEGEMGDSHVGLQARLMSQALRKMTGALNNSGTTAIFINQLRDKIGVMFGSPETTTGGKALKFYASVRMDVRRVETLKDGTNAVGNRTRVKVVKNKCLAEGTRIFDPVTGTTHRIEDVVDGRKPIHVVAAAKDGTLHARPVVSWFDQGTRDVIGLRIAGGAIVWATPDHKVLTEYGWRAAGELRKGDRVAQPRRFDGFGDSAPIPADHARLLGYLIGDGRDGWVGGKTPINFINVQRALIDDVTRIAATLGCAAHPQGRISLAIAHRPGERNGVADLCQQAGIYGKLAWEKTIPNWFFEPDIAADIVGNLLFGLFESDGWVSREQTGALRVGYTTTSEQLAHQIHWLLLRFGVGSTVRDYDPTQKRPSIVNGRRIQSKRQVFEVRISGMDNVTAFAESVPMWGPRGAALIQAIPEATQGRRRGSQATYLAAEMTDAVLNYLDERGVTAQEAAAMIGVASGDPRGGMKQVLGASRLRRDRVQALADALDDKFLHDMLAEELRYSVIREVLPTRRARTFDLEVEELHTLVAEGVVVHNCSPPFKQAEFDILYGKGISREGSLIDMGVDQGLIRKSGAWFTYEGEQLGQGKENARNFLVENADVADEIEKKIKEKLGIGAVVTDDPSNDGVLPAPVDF
# Induced myeloid leukemia cell differentiation protein Mcl-1, sequence (Q07820 whole entry): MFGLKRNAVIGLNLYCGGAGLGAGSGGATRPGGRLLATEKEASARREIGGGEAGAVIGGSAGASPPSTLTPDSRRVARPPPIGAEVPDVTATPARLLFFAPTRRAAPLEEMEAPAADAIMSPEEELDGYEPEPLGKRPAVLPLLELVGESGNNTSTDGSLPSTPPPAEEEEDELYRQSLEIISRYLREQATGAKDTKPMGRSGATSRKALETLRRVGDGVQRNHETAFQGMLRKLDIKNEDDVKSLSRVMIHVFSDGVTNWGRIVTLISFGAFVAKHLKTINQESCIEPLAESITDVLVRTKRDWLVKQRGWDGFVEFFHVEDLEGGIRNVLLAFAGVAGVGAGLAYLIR
# FAD-linked sulfhydryl oxidase ALR, sequence (P55789 whole entry): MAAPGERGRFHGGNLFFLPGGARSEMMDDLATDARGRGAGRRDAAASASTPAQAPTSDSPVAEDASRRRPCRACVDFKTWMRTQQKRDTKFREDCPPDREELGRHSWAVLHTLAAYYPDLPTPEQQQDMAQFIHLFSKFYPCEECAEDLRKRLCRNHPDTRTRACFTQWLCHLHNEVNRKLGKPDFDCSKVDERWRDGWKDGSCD
# 72 kDa type IV collagenase, sequence (P08253 whole entry): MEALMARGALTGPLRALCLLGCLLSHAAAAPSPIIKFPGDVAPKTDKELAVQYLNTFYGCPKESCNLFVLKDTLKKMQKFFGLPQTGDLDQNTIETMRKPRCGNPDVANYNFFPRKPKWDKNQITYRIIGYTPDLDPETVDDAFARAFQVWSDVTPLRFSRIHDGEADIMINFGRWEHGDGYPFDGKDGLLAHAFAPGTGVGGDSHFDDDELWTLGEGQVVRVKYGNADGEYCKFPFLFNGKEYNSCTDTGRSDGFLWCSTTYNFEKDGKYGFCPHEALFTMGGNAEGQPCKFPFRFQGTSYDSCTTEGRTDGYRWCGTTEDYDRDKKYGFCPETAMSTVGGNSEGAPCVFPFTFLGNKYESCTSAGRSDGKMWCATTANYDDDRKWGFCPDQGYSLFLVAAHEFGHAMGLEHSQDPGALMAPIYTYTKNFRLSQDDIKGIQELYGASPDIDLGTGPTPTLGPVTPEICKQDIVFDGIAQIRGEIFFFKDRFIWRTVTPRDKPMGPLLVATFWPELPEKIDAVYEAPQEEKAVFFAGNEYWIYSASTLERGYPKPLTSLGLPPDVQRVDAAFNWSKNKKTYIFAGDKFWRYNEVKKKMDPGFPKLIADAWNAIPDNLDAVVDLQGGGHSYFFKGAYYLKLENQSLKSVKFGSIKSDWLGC
# 26S proteasome non-ATPase regulatory subunit 14, sequence (O00487 whole entry): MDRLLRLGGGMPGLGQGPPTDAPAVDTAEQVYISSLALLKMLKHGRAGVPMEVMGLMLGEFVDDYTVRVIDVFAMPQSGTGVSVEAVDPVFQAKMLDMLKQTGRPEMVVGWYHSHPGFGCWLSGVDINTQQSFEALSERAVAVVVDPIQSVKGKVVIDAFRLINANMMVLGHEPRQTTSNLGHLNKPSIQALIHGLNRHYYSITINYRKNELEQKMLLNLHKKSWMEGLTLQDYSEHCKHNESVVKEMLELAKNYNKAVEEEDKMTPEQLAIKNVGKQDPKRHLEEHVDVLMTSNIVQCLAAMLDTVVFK
structure (smiles),measurement,setting,value
COc1ccc2nc(N3C(=O)/C(=C/c4ccc(Cl)cc4)NC3=S)sc2c1,EC50,[1],30.4 µM (active)
same,IC50,[2],33.5 µM (active)
same,EC50,[3],28.3 µM (active)
same,IC50,[4],1.5 µM (active)
same,IC50,[5],13.3 µM (active)
same,IC50,[6],53 µM (active)
O=C(CSc1nnc[nH]1)Nc1ccc(Br)cc1F,IC50,[7],29.8 µM (active)
Cc1ccc(S(=O)(=O)Nc2ccc(N(C)C)cc2)cc1,AC50,[8],4.46 µM (active)
same,IC50,[9],33.1 µM (active)
same,IC50,[4],10.7 µM (not active)
Cc1ccc(C(=O)OCC(=O)Nc2ccc(N(C)C)cc2)cc1NC(=O)c1ccco1,IC50,[4],3.67 µM (not active)
COC(=O)c1c(NC(=O)C2C3CCC(O3)C2C(=O)O)sc2c1CCCCCC2 (stereo not drawn),IC50,[7],48.9 µM (active)
COc1ccc(NC(=O)CSC2CC(=O)N(c3ccc4c(c3)OCCO4)C2=O)cc1 (stereo not drawn),IC50,[7],16.1 µM (active)
CCc1nnc(NC(=O)CSc2nnc(-c3ccc(NS(=O)(=O)c4ccccc4)cc3)o2)s1,IC50,[10],59.8 µM (active)
same,IC50,[7],< 1 µM (active)
NC(=O)c1c(NC(=S)Nc2ccc(F)cc2)sc2c1CCCC2,IC50,[7],92 µM (active)
Cc1cccc(NC(=O)C2(c3ccc([N+](=O)[O-])cc3)CCCC2)c1,AC50,[11],14 µM (active)
O=C(CCl)Nc1c(C(=O)Nc2ccc3c(c2)OCCO3)oc2ccccc12,AC50,[12],7.89 µM (active)
same,EC50,[13],> 150 µM (inconclusive)
same,EC50,[14],19 µM (active)
same,EC50,[15],3.66 µM (active)
same,EC50,[16],29.4 µM (active)
same,EC50,[17],1.06 µM (active)

# From ChEMBL document CHEMBL1201862, “PubChem BioAssay data set” (2004)
